Measured values: PMC12156367, “Synthesis and Biological Evaluation of Seco-Coumarin/Furoxan Hybrids as Potent Anti-Tumor Agents to Overcome Multidrug Resistance via Multiple Mechanisms” (Molecules, 2025)

Tests used:
MCF-7/ADR = assay: Antiproliferative activity of 9e after pre-treatment with inhibitors (MTT); assay type: cell-based, human
Experimental: Following harvest during logarithmic growth, cells were plated in 96-well culture plates at an initial density of 5000 cells per well. Incubate the plate overnight at 37 °C to allow the cells to adhere. Following the overnight incubation, introduce the compound at the predetermined concentration into each well, and then return the plate to the incubator for an additional 48 h culture period. After the 48 h treatment, carefully aspirate the drug-containing medium from each well. Subsequently, add 150 μL of 0.5 mg/mL MTT (Beyotime, China) solution to each well. Protect the plate from light and incubate it at 37 °C for 4 h to allow the formation of formazan crystals. Finally, add 150 μL of DMSO (Sinopharm, China) to each well and gently mix to ensure complete dissolution of the formazan crystals. The OD value at 570nm was measured using a microplate reader (Thermo Fisher, Waltham, MA, USA). Cell proliferation inhibition was determined using the following formula:Inhibition (%) = [(ODDMSO − ODcompd.)/(ODDMSO − ODblank)] × 100
Carboxy-PTIO (NO scavenger), NAC (N-acetylcysteine), tariquidar (P-glycoprotein inhibitor), and Fer-1 (ferrostatin-1, ferroptosis inhibitor) were purchased from Beyotime. MCF-7/ADR (5000 cells/well) were plated in 96-well plates and cultured overnight. Then, the cells were pre-treated with specified concentrations of inhibitors for 1 h and incubated with 9e (10 or 20 nM) or DMSO (24 h, 37 °C). Experimental procedures were the same as the method for the in vitro antiproliferative assay.

[1] = tested on: human normal mammary epithelial cell lines MCF-10A; assay: Cytotoxicity in normal mammary epithelial cells (MTT); assay type: cell-based; conditions: normal mammary epithelial cell line
Source text: (§1) The MDA-MB-468 cell line was procured from the Cell Bank of the Chinese Academy of Sciences. The MCF-7, MCF-7/ADR, MCF-10A, and MDA-MB-231 cell lines were kindly provided by Professor Xianyi Sha (Fudan University, Shanghai, China). The HUVEC cells were kindly provided by Associate Professor Hulie Zeng (Fudan University, Shanghai, China). The MDA-MB-468, MDA-MB-231, MCF-7, MCF-10A, and HUVEC cells were cultivated in DMEM (Service Biotechnology, China) supplemented with 10% FBS (Capricorn Scientific, Germany) and 1% penicillin-streptomycin (Meilunbio, Dalian, China). For the MCF-7/ADR cells, they were cultured in RPMI-1640 (Service Biotechnology, Wuhan, China), containing 10% FBS and 1% penicillin-streptomycin. […]
(§2) Following harvest during logarithmic growth, cells were plated in 96-well culture plates at an initial density of 5000 cells per well. […] The OD value at 570nm was measured using a microplate reader (Thermo Fisher, Waltham, MA, USA). Cell proliferation inhibition was determined using the following formula:Inhibition (%) = [(ODDMSO − ODcompd.)/(ODDMSO − ODblank)] × 100
(§3) GraphPad Prism software 9 was used to calculate the IC50 values. […] For instance, in the cell experiment, we recorded the cell viability values at different drug concentrations. […]

P-gp in MCF-7/ADR = assay: Rh-123 accumulation assay (flow cytometry); assay type: cell-based, human; conditions: 9e 20 nM, vs DMSO
Experimental: Harvest the MCF-7/ADR cells and seed them into a 96-well plate (2 × 10^5 cells/well). Following overnight culture, cells were treated with 9e (10 and 20 nM) or DMSO (vehicle control) for 60 min. After aspiration of the medium, cells were washed thrice with PBS and subsequently incubated with Rh123 solution (1 μg/mL; Sigma-Aldrich) for 60 min. Subsequently, wash three times with PBS, then digest and centrifuge them (1000× g, 5 min). Resuspend the cells with 1 mL of PBS and centrifuge again (1000× g, 5 min). Finally, after resuspending the cells with 200 μL of PBS, the fluorescence of Rh123 was analyzed by flow cytometry (Beckman, Brea, CA, USA).

[2] = tested on: HUVEC (human umbilical vein endothelial cell lines); assay: Cytotoxicity screen in HUVEC; assay type: cell-based; conditions: 500 nM concentration
Source text: The MDA-MB-468 cell line was procured from the Cell Bank of the Chinese Academy of Sciences. The MCF-7, MCF-7/ADR, MCF-10A, and MDA-MB-231 cell lines were kindly provided by Professor Xianyi Sha (Fudan University, Shanghai, China). The HUVEC cells were kindly provided by Associate Professor Hulie Zeng (Fudan University, Shanghai, China). The MDA-MB-468, MDA-MB-231, MCF-7, MCF-10A, and HUVEC cells were cultivated in DMEM (Service Biotechnology, China) supplemented with 10% FBS (Capricorn Scientific, Germany) and 1% penicillin-streptomycin (Meilunbio, Dalian, China). For the MCF-7/ADR cells, they were cultured in RPMI-1640 (Service Biotechnology, Wuhan, China), containing 10% FBS and 1% penicillin-streptomycin. Additionally, 500 ng/mL of doxorubicin (Sigma-Aldrich, Saint Louis, MO, USA) was incorporated into the RPMI-1640 culture medium to keep drug resistance. All cell lines were cultured in a humidified incubator at 37 °C with a 5% CO2 atmosphere.
Following harvest during logarithmic growth, cells were plated in 96-well culture plates at an initial density of 5000 cells per well. Incubate the plate overnight at 37 °C to allow the cells to adhere. […] The OD value at 570nm was measured using a microplate reader (Thermo Fisher, Waltham, MA, USA). Cell proliferation inhibition was determined using the following formula:Inhibition (%) = [(ODDMSO − ODcompd.)/(ODDMSO − ODblank)] × 100 […]

[3] = tested on: MCF-7 (human breast cancer cell line); assay: In vitro antiproliferative assay (MTT, 48 h), MCF-7; assay type: cell-based; conditions: MCF7, mean of three determinations
Source text: as §1, §2, §3

COc1ccc(CCC(=O)c2ccc(OCCOc3no[n+]([O-])c3S(=O)(=O)c3ccccc3)cc2OC)cc1 [Compound 9e, 4-(2-(3-methoxy-4-(3-(4-methoxyphenyl)propanoyl)phenoxy)ethoxy)-3-(phenylsulfonyl)-1,2,5-oxadiazole 2-oxide]
inhibitory activity after NAC pretreatment (MCF-7/ADR; 10 nM 9e + 1250 μM NAC): completely lost its inhibitory activity
cell survival rate with NO scavenger Carboxy-PTIO (MCF-7/ADR; 20 nM 9e + 100 μM Carboxy-PTIO): 53.7%
cells still inhibited with P-gp inhibitor tariquidar (MCF-7/ADR; 9e + 5 μM tariquidar): 62%
inhibition at 0.02 µM (MCF-7/ADR; Homo sapiens, NCI/ADR-RES, 9e 20 nM alone, read-out: proliferation inhibition rate): 89%
IC50 [1]: 13.2 µM
Rh-123 accumulation (in words) (P-gp in MCF-7/ADR): accumulated significantly
cell survival probability in HUVEC [2]: over 90%
IC50 [3]: 4.23 µM
